In patent US7713994B2 (Wyeth LLC, priority 2005, dated 2010):
Read-outs that look alike come from different tables or passages of the source.

Experiments:
cyclin B/CDK1 enzyme = target: T1, cyclin B/CDK1 enzyme (Homo sapiens, UniProt P06493); assay: CDK1 ELISA kinase assay (phospho-Rb ser 795 detection); assay type: biochemical
T1 construct: purchased New England BioLabs; host or cells: Sf9 insect cells, recombinant baculovirus
Summary of the method: (§1)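 Partially purified Sf9-expressed cyclin D1/CDK4, cyclin E/CDK2 or cyclin B/CDK1 phosphorylated plate-bound GST-Rb C-terminal fragment with 200 μM ATP at 30° C for 1 h.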

cyclin E/CDK2 enzyme = target: T2, cyclin E/CDK2 enzyme (Homo sapiens, UniProt P24941); assay: CDK2 ELISA kinase assay (phospho-Rb ser 795 detection); assay type: biochemical
T2 construct: made in house; host or cells: Sf9 insect cells, recombinant baculovirus
Protocol: • 1. High-binding ELISA microtiter plates (Costar) were coated with 40 μl of the kinase substrate (GST fusion of C-terminal fragment of the retinoblastoma susceptibility gene product) diluted to 10 μg/ml in tris-buffered saline (TBS), overnight at 4° C. • 2. Non-specific binding sites were blocked for 1 hour at 4° C. with Superblock in TBS (Pierce), and the plates rinsed with water. • 3. For the screen, 1.5 μl of test compound (200 μg/ml stock in 20% DMSO/20 mM HEPES, pH 7.5) was added to each well. Final dose of the test compound in the assay was 10 ug/ml. […] The kinase reaction (30 μl) was dispensed into each well. Reactions contained 200 μM ATP, 0.5 mg/ml bovine serum albumin (BSA; Sigma), and 0.5 μl partially purified cyclin D1/cdk 4 enzyme*. The enzyme complex is expressed in insect cells (Sf9) infected with recombinant baculovirus and partially purified using ammonium sulfate fractionation. Reaction volumes were adjusted to 30 μl with kinase assay buffer (50 mM HEPES, pH 7.5, 10 mM MgCl2, 5% glycerol, 10 mM 2-mercaptoethanol). • *: For CDK2 assay, 1.0 μl cyclin E/CDK2 enzyme (diluted 1:1000 in kinase assay buffer) was used. The enzyme is isolated from insect cells (Sf9) infected with recombinant baculovirus and partially purified using ammonium sulfate fractionation. For CDK1 assay, 0.08 μl cyclin B/CDK1 enzyme [New England BioLabs; the enzyme is isolated from insect cells (Sf9) infected with recombinant baculovirus carrying human cdc 2 and human cyclin B] was used.
[…] • 5. Plates were incubated at 30° C. for 1 hour. • 6. The reaction mixture was removed by aspiration and replaced with 250 μl TBS containing 0.1% Tween-20 and 5% nonfat dry milk (blocking buffer). The plates were incubated at 4° C. for 1 hour. • 7. The blocking buffer was removed and replaced with 50 μl of the primary antibody [anti-phospho-Rb ser 795 (New England BioLabs) diluted 1:1000 in blocking buffer]. Incubation was at 4° C. for 16-20 hours. • 8. The wells were rinsed 3 times with 250 μl of TBS containing 0.1% Tween-20 followed by the addition of 50 μl of secondary antibody [anti-rabbit IgG conjugated to horseradish peroxidase (Amersham Life Science) diluted 1:1000 in blocking buffer]. • 9. After a 1 hour incubation at room temperature, the wells were rinsed 3 times with 250 μl of TBS/0.1% Tween 20. • 10. TMB (3,3′,5,5′-tetramethylbenzidine dihydrochloride) substrate solution (100 μl; Pierce) was added to each well and the color development reaction allowed to proceed 5-10 minutes at room temperature with shaking. The reaction was stopped by the addition of 2N sulfuric acid (100 μl) and the absorbance values read at 450 nm in a microplate reader (Molecular Devices). Analysis of Results: • 1. The percentage of the absorbance value in wells containing the test compound relative to control wells (no test agent) was determined. • 2. IC50 values of selected compounds were determined from inhibition curves, after subtracting background values (no substrate).

MCF-7 = assay: Cytotoxicity assay (SRB), MCF-7; assay type: cell-based; conditions: MCF-7 cells, SRB, read-out: In Vitro Cellular Activity IC50 MCF-7
Summary of the method: (§2)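 BT474 (12000 cells/well) was treated for 6 days, whereas HCT-116 (4000), LoVo (6000) and MCF-7 (6000) were treated for 3 days, all in RPMI 1640 containing 5% FBS. Surviving-cell percentage came from SRB dye binding measured at 540 nm.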

cyclin D1/cdk 4 enzyme = target: T3, cyclin D1/cdk 4 enzyme (Homo sapiens, UniProt P11802); assay: CDK4 ELISA kinase assay (phospho-Rb ser 795 detection); assay type: biochemical
T3 construct: made in house; host or cells: Sf9 insect cells, recombinant baculovirus
T3 sequence (P11802 whole entry, species assumed): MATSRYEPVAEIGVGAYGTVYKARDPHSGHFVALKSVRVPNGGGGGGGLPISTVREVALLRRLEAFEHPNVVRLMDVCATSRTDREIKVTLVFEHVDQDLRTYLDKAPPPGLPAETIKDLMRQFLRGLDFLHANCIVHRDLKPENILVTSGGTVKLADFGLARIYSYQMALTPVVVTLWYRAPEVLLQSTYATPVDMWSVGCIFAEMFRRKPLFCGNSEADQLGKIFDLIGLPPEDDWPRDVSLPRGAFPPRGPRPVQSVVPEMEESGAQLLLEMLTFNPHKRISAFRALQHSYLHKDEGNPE
T3 sequence (P24385 whole entry partner, species assumed): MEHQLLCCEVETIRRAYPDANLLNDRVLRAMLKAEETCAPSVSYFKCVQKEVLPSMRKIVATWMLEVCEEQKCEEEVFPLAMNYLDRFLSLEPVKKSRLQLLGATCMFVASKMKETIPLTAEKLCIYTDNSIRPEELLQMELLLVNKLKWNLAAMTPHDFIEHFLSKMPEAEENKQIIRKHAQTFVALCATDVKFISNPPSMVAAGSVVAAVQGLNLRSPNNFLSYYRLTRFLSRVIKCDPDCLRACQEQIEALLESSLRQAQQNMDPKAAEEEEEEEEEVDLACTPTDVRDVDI
Summary of the method: as §1

LoVo = assay: Cytotoxicity assay (SRB), LoVo; assay type: cell-based; conditions: LoVo cells, SRB, read-out: In Vitro Cellular Activity IC50 LOVO
Summary of the method: as §2

HCT-116 = assay: Cytotoxicity assay (SRB), HCT-116; assay type: cell-based; conditions: HCT116 cells, SRB, read-out: In Vitro Cellular Activity IC50 HCT116
Summary of the method: as §2

BT474 = assay: Cytotoxicity assay (SRB), BT474; assay type: cell-based
Summary of the method: as §2

[1] = In Vitro Enzyme Assay, cyclin B/CDK1, read-out: CDK1 IC50
[2] = In Vitro Enzyme Assay, cyclin E/CDK2, read-out: CDK2 IC50
[3] = In Vitro Enzyme Assay, cyclin D1/cdk 4, read-out: CDK4 IC50
[4] = BT474 cells, 6 days, SRB; read-out: In Vitro Cellular Activity IC50 BT474
[5] = In Vitro Enzyme Assays, read-out: CDK1 IC50
[6] = In Vitro Enzyme Assays, read-out: CDK2 IC50
[7] = In Vitro Enzyme Assays, 200 μM ATP, read-out: CDK4 IC50
[8] = Homo sapiens, LoVo, 72 h, three days
[9] = Homo sapiens, BT-474, 144 h, BT474 cells, SRB, 6 days; read-out: In Vitro Cellular Activity IC50 BT474
[10] = Homo sapiens, LoVo, 72 h, 3 days
[11] = Homo sapiens, HCT-116, 72 h, 3 days
[12] = Homo sapiens, BT-474, 144 h, BT474 cells, 6 days, SRB; read-out: In Vitro Cellular Activity IC50 BT474
[13] = In Vitro Enzyme Assay, read-out: CDK1 IC50
[14] = In Vitro Enzyme Assay, read-out: CDK2 IC50
[15] = Homo sapiens, MCF7, 72 h, 3 days
[16] = In Vitro Enzyme Assay, read-out: CDK4 IC50

T1 sequence (P06493 whole entry): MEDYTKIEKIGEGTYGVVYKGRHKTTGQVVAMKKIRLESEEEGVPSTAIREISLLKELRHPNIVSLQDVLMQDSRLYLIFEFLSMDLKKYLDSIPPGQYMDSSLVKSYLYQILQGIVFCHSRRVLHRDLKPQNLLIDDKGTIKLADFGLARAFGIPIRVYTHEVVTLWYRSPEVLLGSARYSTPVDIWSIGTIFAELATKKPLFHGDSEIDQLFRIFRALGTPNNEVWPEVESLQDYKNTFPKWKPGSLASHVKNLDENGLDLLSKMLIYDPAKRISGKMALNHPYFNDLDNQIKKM
T1 sequence (P14635 whole entry partner): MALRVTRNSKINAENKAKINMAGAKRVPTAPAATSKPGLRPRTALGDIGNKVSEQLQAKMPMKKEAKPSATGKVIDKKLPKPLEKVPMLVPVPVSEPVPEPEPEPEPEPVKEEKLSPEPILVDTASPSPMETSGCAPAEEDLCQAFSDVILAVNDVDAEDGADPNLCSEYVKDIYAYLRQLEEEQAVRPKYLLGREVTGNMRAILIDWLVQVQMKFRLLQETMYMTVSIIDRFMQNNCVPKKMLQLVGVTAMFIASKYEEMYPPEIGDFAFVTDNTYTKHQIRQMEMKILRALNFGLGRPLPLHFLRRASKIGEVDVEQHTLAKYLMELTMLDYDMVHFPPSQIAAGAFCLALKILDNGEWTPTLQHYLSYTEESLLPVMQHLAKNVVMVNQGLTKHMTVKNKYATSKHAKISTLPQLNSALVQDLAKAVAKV

Compound: 6-Benzofuran-2-yl-4-[(3,4-dihydroxy-benzylamino)-methylene]-4H-isoquinoline-1,3-dione [Example 643]
- IC50 (cyclin B/CDK1 enzyme; [1]): > 50 µM
- IC50 (cyclin E/CDK2 enzyme; [2]): > 50 µM
- IC50 (MCF-7; 3 days): 9.2 µM
- IC50 (cyclin D1/cdk 4 enzyme; [3]): 3.5 µM
- IC50 (LoVo; 3 days): 11.7 µM
- IC50 (HCT-116; 3 days): 14.9 µM
- IC50 (BT474; [4]): 13.4 µM

Compound: 6-Bromo-4-[(4-methoxy-phenylamino)-methylene]-1,4-dihydro-2H-isoquinolin-3-one & 8-Bromo-4-[(4-methoxy-phenylamino)-methylene]-1,4-dihydro-2H-isoquinolin-3-one [Example 844]
- IC50 (cyclin B/CDK1 enzyme; [1]): > 50 µM
- IC50 (cyclin E/CDK2 enzyme; [2]): > 50 µM
- IC50 (MCF-7; 3 days): 26.1 µM
- IC50 (cyclin D1/cdk 4 enzyme; [3]): 34.7 µM
- IC50 (LoVo; 3 days): 26.7 µM
- IC50 (HCT-116; 3 days): 28 µM
- IC50 (BT474; [4]): 27.1 µM

Compound: O=C1NC(=O)c2ccc(Nc3ccccc3)cc2/C1=C/Nc1ccc(CN2CCCCC2)cc1 [Example 128, (4Z)-6-Anilino-4-({[4-(piperidin-1-ylmethyl)phenyl]amino}methylene)isoquinoline-1,3(2H,4H)-dione]
- IC50 (cyclin B/CDK1 enzyme; [5]): > 50 µM
- IC50 (cyclin E/CDK2 enzyme; [6]): > 50 µM
- IC50 (cyclin D1/cdk 4 enzyme; [7]): 1.8 µM
- IC50 (LoVo; [8]): 2.1 µM
- IC50 (BT474; [9]): 3.1 µM

Compound: C[C@@H]1CN(c2ccc(N/C=C3\C(=O)NC(=O)c4ccc(I)cc43)cc2)C[C@H](C)N1C [Example 234, (4Z)-6-Iodo-4-[({4-[(3R,5S)-3,4,5-trimethylpiperazin-1-yl]phenyl}amino)methylene]-isoquinoline-1,3(2H,4H)-dione]
- IC50 (cyclin B/CDK1 enzyme; [5]): > 50 µM
- IC50 (cyclin E/CDK2 enzyme; [6]): > 50 µM
- IC50 (cyclin D1/cdk 4 enzyme; [7]): 2.8 µM
- IC50 (LoVo; [8]): 3.4 µM
- IC50 (BT474; [9]): 2.5 µM

Compound: O=C1NC(=O)c2ccc(I)cc2/C1=C/Nc1ccc2ncccc2c1 [Example 272, (4Z)-6-Iodo-4-[(quinolin-6-ylamino)methylene]isoquinoline-1,3(2H,4H)-dione]
- IC50 (cyclin B/CDK1 enzyme; [5]): > 50 µM
- IC50 (cyclin E/CDK2 enzyme; [6]): 39.7 µM
- IC50 (MCF-7; Homo sapiens, MCF7, 72 h, three days): 3.1 µM
- IC50 (LoVo; [8]): 8.9 µM
- IC50 (HCT-116; Homo sapiens, HCT-116, 72 h, three days): 4.2 µM
- IC50 (BT474; [9]): 7.2 µM

Compound: O=C(O)CCc1ccc(-c2ccc3c(c2)C(=CNCc2ccc(O)c(O)c2)C(=O)NC3=O)cc1 [Example 819, 3-(4-{4-[(3,4-Dihydroxy-benzylamino)-methylene]-1,3-dioxo-1,2,3,4-tetrahydro-isoquinolin-6-yl}-phenyl)-propionic acid]
- IC50 (cyclin B/CDK1 enzyme; [1]): 27.1 µM
- IC50 (cyclin E/CDK2 enzyme; [2]): 27.1 µM
- IC50 (cyclin D1/cdk 4 enzyme; [3]): 0.81 µM

Compound: COc1ccc(NC=C2C(=O)NCc3cc(Br)ccc32)cc1 [Example 841, 7-Bromo-4-[(4-methoxy-phenylamino)-methylene]-1,4-dihydro-2H-isoquinolin-3-one]
- IC50 (cyclin B/CDK1 enzyme; [1]): > 50 µM
- IC50 (cyclin E/CDK2 enzyme; [2]): 25.3 µM
- IC50 (LoVo; [10]): 34 µM
- IC50 (HCT-116; [11]): 36 µM
- IC50 (BT474; [12]): 47.8 µM

Compound: CN1CCN(c2ccc(NC=C3C(=O)NCc4cc(Br)ccc43)cc2)CC1 [Example 842, 7-Bromo-4-{[4-(4-methyl-piperazin-1-yl)-phenylamino]-methylene}-1,4-dihydro-2H-isoquinolin-3-one]
- IC50 (cyclin B/CDK1 enzyme; [1]): > 50 µM
- IC50 (cyclin E/CDK2 enzyme; [2]): > 50 µM
- IC50 (cyclin D1/cdk 4 enzyme; [3]): 2.3 µM
- IC50 (LoVo; [10]): 5.7 µM
- IC50 (HCT-116; [11]): 4.5 µM
- IC50 (BT474; [12]): 7.2 µM

Compound: CN1CCN(c2ccc(NC=C3C(=O)NC(=O)c4ccc(-c5ccc6c(ccn6CC(N)=O)c5)cc43)cc2)CC1 [Example 851, 2-[5-(4-{[4-(4-Methyl-piperazin-1-yl)-phenylamino]-methylene}-1,3-dioxo-1,2,3,4-tetrahydro-isoquinolin-6-yl)-indol-1-yl]-acetamide]
- IC50 (cyclin B/CDK1 enzyme; [1]): 2.7 µM
- IC50 (cyclin E/CDK2 enzyme; [2]): 10.3 µM
- IC50 (cyclin D1/cdk 4 enzyme; [3]): 0.79 µM

Compound: CN1CCN(c2ccc(NC=C3C(=O)NC(=O)c4ccc(-c5ccn(CC(N)=O)c5)cc43)cc2)CC1 [Example 853, 2-[3-(4-{[4-(4-Methyl-piperazin-1-yl)-phenylamino]-methylene}-1,3-dioxo-1,2,3,4-tetrahydro-isoquinolin-6-yl)-pyrrol-1-yl]-acetamide]
- IC50 (cyclin B/CDK1 enzyme; [1]): > 50 µM
- IC50 (cyclin E/CDK2 enzyme; [2]): > 50 µM
- IC50 (cyclin D1/cdk 4 enzyme; [3]): 0.12 µM

Compound: CCN(CC)CCn1ccc(-c2ccc3c(c2)C(=CNc2ccc(N4CCN(C)CC4)cc2)C(=O)NC3=O)c1 [Example 854, 6-[1-(2-Diethylamino-ethyl)-1H-pyrrol-3-yl]-4-{[4-(4-methyl-piperazin-1-yl)-phenylamino]-methylene}-4H-isoquinoline-1,3-dione]
- IC50 (cyclin B/CDK1 enzyme; [1]): > 50 µM
- IC50 (cyclin E/CDK2 enzyme; [2]): > 50 µM
- IC50 (cyclin D1/cdk 4 enzyme; [3]): 0.61 µM

Compound: CONCCCc1ccc(N/C=C2\C(=O)NC(=O)c3ccc(Br)cc32)cc1 [Example 875, (4Z)-6-bromo-4-[({4-[3-(methoxyamino)propyl]phenyl}amino)methylene]isoquinoline-1,3(2H,4H)-dione]
- IC50 (cyclin B/CDK1 enzyme; [13]): 15.1 µM
- IC50 (cyclin E/CDK2 enzyme; [14]): 2.8 µM
- IC50 (MCF-7; [15]): 10.3 µM
- IC50 (cyclin D1/cdk 4 enzyme; [16]): 1.9 µM
- IC50 (LoVo; [10]): 12.5 µM
- IC50 (HCT-116; [11]): 9.5 µM

Compound: CN(C)CCCN(C)c1ccc(N/C=C2\C(=O)NC(=O)c3ccc(Br)cc32)cc1 [Example 876, (4Z)-6-Bromo-4-[({4-[[3-(dimethylamino)propyl](methyl)amino]phenyl}amino)methylene]isoquinoline-1,3(2H,4H)-dione]
- IC50 (cyclin B/CDK1 enzyme; [13]): > 50 µM
- IC50 (cyclin E/CDK2 enzyme; [14]): > 50 µM
- IC50 (MCF-7; [15]): 5.3 µM
- IC50 (cyclin D1/cdk 4 enzyme; [16]): 14.4 µM
- IC50 (LoVo; [10]): 8.6 µM
- IC50 (HCT-116; [11]): 4.2 µM

Compound: CN1CCC(Oc2ccc(N/C=C3\C(=O)NC(=O)c4ccc(Br)cc43)cc2)C1 (centres unmarked) [Example 877, (4Z)-6-Bromo-4-[({4-[(1-methylpyrrolidin-3-yl)oxy]phenyl}amino)methylene]isoquinoline-1,3(2H,4H)-dione]
- IC50 (cyclin B/CDK1 enzyme; [13]): > 50 µM
- IC50 (cyclin E/CDK2 enzyme; [14]): > 50 µM
- IC50 (MCF-7; [15]): 4.4 µM
- IC50 (cyclin D1/cdk 4 enzyme; [16]): 42.5 µM
- IC50 (LoVo; [10]): 6.2 µM
- IC50 (HCT-116; [11]): 3.9 µM

Compound: (4Z)-6-Bromo-4-{[(3-hydroxy-4-methoxybenzyl)amino)methylene}isoquinoline-1,3(2H,4H-dione [Example 50]
- IC50 (cyclin B/CDK1 enzyme; [5]): > 50 µM
- IC50 (cyclin E/CDK2 enzyme; [6]): > 50 µM
- IC50 (cyclin D1/cdk 4 enzyme; [7]): 0.03 µM
